In the supplement of paper PMC10627819:

Legend:
S. pneumoniae D39V [1] = experiment: fitness (endpoint OD595 vs no drug) (fraction); higher = more growth
Summary of the method: (§1)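 At 37 °C, bacteria in TSB, LB Lennox or CY were grown in 384-well plates from a starting OD595 of 0.01. OD595 was measured every 30 min for 14 h, with the first reading used as background. Fitness is the optical density at the switch to stationary phase as a fraction of the robust mean of no-drug control wells, capped at 1.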

B. subtilis 168 [2] = experiment: as above
Summary of the method: as §1

S. aureus DSM 20231 [3] = experiment: as above
Summary of the method: as §1

S. aureus Newman [4] = experiment: as above
Summary of the method: as §1

S. pneumoniae D39V [5] = experiment: Bliss interaction score (quartile over a dose matrix) (fitness difference); higher = more antagonism (negative = synergy)
Summary of the method: (§2)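 Fitness is OD595 at stationary-phase entry relative to the plate's robust no-drug mean, capped at 1. Single-drug fitness was inferred from combinations. The Bliss score is observed minus product-expected fitness, summarised by quartiles over technical, biological and donor/recipient replicates.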

B. subtilis 168 [6] = experiment: as above
Summary of the method: as §2

S. aureus DSM 20231 [7] = experiment: as above
Summary of the method: as §2

S. aureus Newman [8] = experiment: as above
Summary of the method: as §2
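Throughout, for Bliss interaction score (quartile over a dose matrix): first quartile when negative (synergy) and third quartile when positive (antagonism).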

CCCCCCCCCC(=O)N[C@@H](Cc1c[nH]c2ccccc12)C(=O)N[C@H](CC(N)=O)C(=O)N[C@@H](CC(=O)O)C(=O)N[C@@H]1C(=O)NCC(=O)N[C@@H](CCCN)C(=O)N[C@@H](CC(=O)O)C(=O)N[C@H](C)C(=O)N[C@@H](CC(=O)O)C(=O)NCC(=O)N[C@H](CO)C(=O)N[C@@H]([C@H](C)CC(=O)O)C(=O)N[C@@H](CC(=O)c2ccccc2N)C(=O)O[C@@H]1C [Daptomycin] + CN(N=O)C(=O)N[C@@H](C=O)[C@@H](O)[C@H](O)[C@H](O)CO [Streptozotocin]
fitness
Conditions | partner 0.15 µg/mL | partner 0.3 µg/mL | partner 0.6 µg/mL | partner 1.2 µg/mL | partner 2.4 µg/mL | partner 4.8 µg/mL
B. subtilis 168 [2], first compound 0.25 µg/mL | 0.89 | 0.914 | 0.969 | – | – | –
B. subtilis 168 [2], first compound 0.5 µg/mL | 0.835 | 0.761 | 0.768 | – | – | –
S. aureus DSM 20231 [3], first compound 0.5 µg/mL | 0.817 | 0.778 | 0.732 | – | – | –
S. aureus DSM 20231 [3], first compound 1 µg/mL | 0.93 | 0.799 | 0.744 | – | – | –
S. aureus DSM 20231 [3], first compound 2 µg/mL | 0.871 | 0.818 | 0.748 | – | – | –
S. aureus Newman [4], first compound 0.125 µg/mL | 0.945 | 0.805 | 0.636 | – | – | –
S. aureus Newman [4], first compound 0.25 µg/mL | 0.957 | 0.855 | 0.594 | – | – | –
S. aureus Newman [4], first compound 0.5 µg/mL | 0.969 | 0.807 | 0.627 | – | – | –
S. pneumoniae D39V [1], first compound 1 µg/mL | – | – | – | 0.94 | 0.939 | 0.918
S. pneumoniae D39V [1], first compound 2 µg/mL | – | – | – | 0.935 | 0.95 | 0.884
S. pneumoniae D39V [1], first compound 4 µg/mL | – | – | – | 0.968 | 0.942 | 0.923

fitness, one replicate
Conditions | partner 0.15 µg/mL | partner 0.3 µg/mL | partner 0.6 µg/mL
B. subtilis 168 [2], first compound 0.125 µg/mL | 0.889 | 0.968 | 0.935
B. subtilis 168 [2], first compound 1 µg/mL | 0.658 | 0.674 | 0.669
S. aureus DSM 20231 [3], first compound 0.125 µg/mL | 0.795 | 0.761 | 0.645
S. aureus DSM 20231 [3], first compound 0.25 µg/mL | 0.883 | 0.764 | 0.656

Conditions | Bliss interaction score
B. subtilis 168 [6] | -0.0562
S. aureus DSM 20231 [7] | 0.0436
S. aureus Newman [8] | 0.0468
S. pneumoniae D39V [5] | 0.0898

CCCCCCCCCC(=O)N[C@@H](Cc1c[nH]c2ccccc12)C(=O)N[C@H](CC(N)=O)C(=O)N[C@@H](CC(=O)O)C(=O)N[C@@H]1C(=O)NCC(=O)N[C@@H](CCCN)C(=O)N[C@@H](CC(=O)O)C(=O)N[C@H](C)C(=O)N[C@@H](CC(=O)O)C(=O)NCC(=O)N[C@H](CO)C(=O)N[C@@H]([C@H](C)CC(=O)O)C(=O)N[C@@H](CC(=O)c2ccccc2N)C(=O)O[C@@H]1C [Daptomycin] + CN[C@@H]1[C@H](O)[C@H](NC)[C@H]2O[C@@]3(O)C(=O)C[C@@H](C)O[C@H]3O[C@@H]2[C@H]1O [Spectinomycin]
fitness
Conditions | first compound 0.125 µg/mL | first compound 0.25 µg/mL | first compound 0.5 µg/mL | first compound 1 µg/mL | first compound 2 µg/mL | first compound 4 µg/mL
B. subtilis 168 [2], partner 2 µg/mL | 0.934 | 0.979 | 0.836 | – | – | –
B. subtilis 168 [2], partner 4 µg/mL | 0.964 | 0.946 | 0.813 | – | – | –
B. subtilis 168 [2], partner 8 µg/mL | 0.863 | 0.944 | 0.835 | – | – | –
S. aureus DSM 20231 [3], partner 4 µg/mL | – | – | ≥ 1 | 0.978 | 0.964 | –
S. aureus DSM 20231 [3], partner 8 µg/mL | – | – | ≥ 1 | 0.96 | 0.946 | –
S. aureus DSM 20231 [3], partner 16 µg/mL | 0.852 | 0.872 | 0.905 | 0.931 | 0.866 | –
S. aureus Newman [4], partner 4 µg/mL | 0.963 | 0.932 | 0.924 | – | – | –
S. aureus Newman [4], partner 8 µg/mL | 0.991 | 0.983 | 0.952 | – | – | –
S. aureus Newman [4], partner 16 µg/mL | 0.915 | 0.917 | 0.905 | – | – | –
S. pneumoniae D39V [1], partner 4 µg/mL | – | – | – | 0.92 | 0.943 | 0.941
S. pneumoniae D39V [1], partner 8 µg/mL | – | – | – | 0.817 | 0.856 | 0.847
S. pneumoniae D39V [1], partner 16 µg/mL | – | – | – | 0.554 | 0.569 | 0.546

fitness, one replicate
Conditions | partner 2 µg/mL | partner 4 µg/mL | partner 8 µg/mL | partner 32 µg/mL | partner 64 µg/mL
B. subtilis 168 [2], first compound 1 µg/mL | 0.704 | 0.71 | 0.751 | – | –
S. aureus DSM 20231 [3], first compound 0.125 µg/mL | – | 0.935 | 0.988 | 0.767 | 0.0669
S. aureus DSM 20231 [3], first compound 0.25 µg/mL | – | 0.977 | 0.998 | 0.7 | 0.0927
S. aureus DSM 20231 [3], first compound 0.5 µg/mL | – | – | – | 0.745 | 0.079
S. aureus Newman [4], first compound 0.125 µg/mL | – | – | – | 0.595 | 0.0775
S. aureus Newman [4], first compound 0.25 µg/mL | – | – | – | 0.63 | 0.0532
S. aureus Newman [4], first compound 0.5 µg/mL | – | – | – | 0.626 | 0.0675

Conditions | Bliss interaction score
B. subtilis 168 [6] | 0.0649
S. aureus DSM 20231 [7] | 0.0629
S. aureus Newman [8] | 0.0696
S. pneumoniae D39V [5] | 0.0673
